Consider 6 molecules from ChEMBL document CHEMBL5029192, “Novel Macrocyclic LRRK2 Inhibitors for Treating Parkinson's Disease” (ACS Med Chem Lett, 2022).

SMILES strings stand for the structures.

The target in the assay is Leucine-rich repeat serine/threonine-protein kinase 2 (Homo sapiens, UniProt Q5S007). Briefly: Inhibition of recombinant human LRRK2 using LRRKtide peptide and ATP as substrates incubated for 1 hrs by ADP-glo luminescent assay. (In general: ADP-Glo turns the ADP formed in a reaction into a luminescent signal.)
Chain of Leucine-rich repeat serine/threonine-protein kinase 2 (Q5S007 whole entry): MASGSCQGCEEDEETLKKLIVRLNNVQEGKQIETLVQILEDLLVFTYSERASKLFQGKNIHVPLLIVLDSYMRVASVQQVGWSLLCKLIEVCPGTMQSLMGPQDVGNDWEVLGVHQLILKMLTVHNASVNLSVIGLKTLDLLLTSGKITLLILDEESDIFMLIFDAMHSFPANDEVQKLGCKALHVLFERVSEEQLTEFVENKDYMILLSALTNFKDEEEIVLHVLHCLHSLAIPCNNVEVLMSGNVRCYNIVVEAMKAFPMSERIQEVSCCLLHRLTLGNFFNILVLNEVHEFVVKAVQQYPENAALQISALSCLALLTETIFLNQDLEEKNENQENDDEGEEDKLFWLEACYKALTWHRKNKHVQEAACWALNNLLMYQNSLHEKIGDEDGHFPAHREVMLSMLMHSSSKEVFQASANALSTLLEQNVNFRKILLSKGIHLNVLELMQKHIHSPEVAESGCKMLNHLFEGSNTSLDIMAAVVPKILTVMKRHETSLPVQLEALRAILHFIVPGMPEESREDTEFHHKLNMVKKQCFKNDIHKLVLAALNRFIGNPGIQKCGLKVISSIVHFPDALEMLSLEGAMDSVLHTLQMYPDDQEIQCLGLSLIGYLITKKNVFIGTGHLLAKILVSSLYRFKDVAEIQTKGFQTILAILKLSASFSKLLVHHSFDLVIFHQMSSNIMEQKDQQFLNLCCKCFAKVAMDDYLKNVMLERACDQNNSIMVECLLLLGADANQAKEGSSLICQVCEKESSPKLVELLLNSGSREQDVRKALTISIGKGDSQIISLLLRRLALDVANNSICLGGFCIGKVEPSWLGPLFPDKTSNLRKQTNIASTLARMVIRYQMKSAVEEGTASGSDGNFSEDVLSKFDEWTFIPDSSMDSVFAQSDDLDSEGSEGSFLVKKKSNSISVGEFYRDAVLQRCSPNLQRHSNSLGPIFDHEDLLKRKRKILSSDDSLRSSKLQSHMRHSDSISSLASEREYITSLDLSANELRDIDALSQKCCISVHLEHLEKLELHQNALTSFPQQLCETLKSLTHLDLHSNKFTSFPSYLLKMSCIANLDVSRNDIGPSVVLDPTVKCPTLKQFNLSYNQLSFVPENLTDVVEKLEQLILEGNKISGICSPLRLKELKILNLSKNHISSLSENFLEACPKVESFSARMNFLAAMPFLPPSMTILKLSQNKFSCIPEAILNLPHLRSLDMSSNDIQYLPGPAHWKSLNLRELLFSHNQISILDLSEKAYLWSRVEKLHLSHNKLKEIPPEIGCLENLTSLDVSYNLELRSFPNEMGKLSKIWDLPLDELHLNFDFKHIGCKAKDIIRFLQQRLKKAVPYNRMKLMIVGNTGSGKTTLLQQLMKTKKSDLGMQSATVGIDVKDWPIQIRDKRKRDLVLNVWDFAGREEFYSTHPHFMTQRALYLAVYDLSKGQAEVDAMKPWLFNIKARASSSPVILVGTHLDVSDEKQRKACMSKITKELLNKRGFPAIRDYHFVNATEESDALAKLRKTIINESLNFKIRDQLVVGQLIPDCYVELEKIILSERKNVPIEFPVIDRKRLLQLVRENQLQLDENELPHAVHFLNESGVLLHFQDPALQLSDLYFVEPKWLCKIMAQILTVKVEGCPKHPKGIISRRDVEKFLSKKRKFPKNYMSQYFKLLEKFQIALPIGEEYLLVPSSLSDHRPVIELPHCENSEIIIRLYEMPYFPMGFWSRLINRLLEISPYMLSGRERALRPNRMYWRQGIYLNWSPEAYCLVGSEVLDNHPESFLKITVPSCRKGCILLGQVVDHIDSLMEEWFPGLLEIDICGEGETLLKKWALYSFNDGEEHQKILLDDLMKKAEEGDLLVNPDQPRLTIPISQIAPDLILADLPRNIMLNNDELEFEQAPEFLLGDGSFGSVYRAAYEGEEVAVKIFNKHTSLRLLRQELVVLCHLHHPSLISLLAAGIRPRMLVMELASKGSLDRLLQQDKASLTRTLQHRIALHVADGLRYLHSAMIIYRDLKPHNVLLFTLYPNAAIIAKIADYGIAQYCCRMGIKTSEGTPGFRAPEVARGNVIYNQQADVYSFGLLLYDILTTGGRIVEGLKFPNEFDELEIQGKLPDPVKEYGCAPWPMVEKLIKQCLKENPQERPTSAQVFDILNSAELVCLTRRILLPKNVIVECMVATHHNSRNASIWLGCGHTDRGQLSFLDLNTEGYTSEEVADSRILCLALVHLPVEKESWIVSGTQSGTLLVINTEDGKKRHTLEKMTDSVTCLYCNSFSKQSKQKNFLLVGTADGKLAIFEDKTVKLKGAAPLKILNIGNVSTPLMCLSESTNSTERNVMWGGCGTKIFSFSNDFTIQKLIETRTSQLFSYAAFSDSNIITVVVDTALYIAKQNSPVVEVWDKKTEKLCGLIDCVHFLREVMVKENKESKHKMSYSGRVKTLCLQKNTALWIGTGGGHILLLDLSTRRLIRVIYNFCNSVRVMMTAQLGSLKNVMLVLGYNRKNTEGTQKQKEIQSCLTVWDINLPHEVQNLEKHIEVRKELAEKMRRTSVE
By IC50 is commonly meant the concentration that gives 50% inhibition. In the case of `O=C1NCCCOc2ccc3[nH]nc(c3c2)-c2cc(cc(N3CCN(C4COC4)CC3)c2)CO1`, the IC50 is under 10 nM.
For the molecule `O=C1NCCCOc2ccc3[nH]nc(c3c2)-c2cc(cc(N3CCC(N4CCOCC4)CC3)c2)CO1`, the IC50 was under 10 nM.
The result for `O=C1NCCCOc2ccc3[nH]nc(c3c2)-c2ccc(C3CC3)c(c2)CO1` reads under 10 nM; that for `O=C1NCCCOc2ccc3[nH]nc(c3c2)-c2cc(cc(N3CCC4(COC4)C3)c2)CO1`, under 10 nM; that for `O=C1NCCCOc2ccc3[nH]nc(c3c2)-c2csc(n2)CCO1`, under 10 nM.
The result for `O=C1NCCCOc2ccc3[nH]nc(c3c2)-c2cc(cc(N3CCC(N4CCCC4)CC3)c2)CO1` reads under 10 nM.
